Structures are written as SMILES. Structures can show the parent of a compound that is named as a salt.

Drawing on patent US10039753B2, “Imidazo[4,5-c]quinoline and imidazo[4,5-c][1,5]naphthyridine derivatives as LRRK2 inhibitors” (Pfizer Inc., priority 2015, dated 2018), this text covers IC50 for 23 compounds.

The target of assay [1] is T1, GST-tagged truncated LRRK2 (Homo sapiens, UniProt Q5S007).
T1 construct: GST-tagged truncated LRRK2 from Invitrogen (Cat # PV4874); GST; purchased Invitrogen PV4874
T1 sequence (Q5S007 970-2527 limits assumed): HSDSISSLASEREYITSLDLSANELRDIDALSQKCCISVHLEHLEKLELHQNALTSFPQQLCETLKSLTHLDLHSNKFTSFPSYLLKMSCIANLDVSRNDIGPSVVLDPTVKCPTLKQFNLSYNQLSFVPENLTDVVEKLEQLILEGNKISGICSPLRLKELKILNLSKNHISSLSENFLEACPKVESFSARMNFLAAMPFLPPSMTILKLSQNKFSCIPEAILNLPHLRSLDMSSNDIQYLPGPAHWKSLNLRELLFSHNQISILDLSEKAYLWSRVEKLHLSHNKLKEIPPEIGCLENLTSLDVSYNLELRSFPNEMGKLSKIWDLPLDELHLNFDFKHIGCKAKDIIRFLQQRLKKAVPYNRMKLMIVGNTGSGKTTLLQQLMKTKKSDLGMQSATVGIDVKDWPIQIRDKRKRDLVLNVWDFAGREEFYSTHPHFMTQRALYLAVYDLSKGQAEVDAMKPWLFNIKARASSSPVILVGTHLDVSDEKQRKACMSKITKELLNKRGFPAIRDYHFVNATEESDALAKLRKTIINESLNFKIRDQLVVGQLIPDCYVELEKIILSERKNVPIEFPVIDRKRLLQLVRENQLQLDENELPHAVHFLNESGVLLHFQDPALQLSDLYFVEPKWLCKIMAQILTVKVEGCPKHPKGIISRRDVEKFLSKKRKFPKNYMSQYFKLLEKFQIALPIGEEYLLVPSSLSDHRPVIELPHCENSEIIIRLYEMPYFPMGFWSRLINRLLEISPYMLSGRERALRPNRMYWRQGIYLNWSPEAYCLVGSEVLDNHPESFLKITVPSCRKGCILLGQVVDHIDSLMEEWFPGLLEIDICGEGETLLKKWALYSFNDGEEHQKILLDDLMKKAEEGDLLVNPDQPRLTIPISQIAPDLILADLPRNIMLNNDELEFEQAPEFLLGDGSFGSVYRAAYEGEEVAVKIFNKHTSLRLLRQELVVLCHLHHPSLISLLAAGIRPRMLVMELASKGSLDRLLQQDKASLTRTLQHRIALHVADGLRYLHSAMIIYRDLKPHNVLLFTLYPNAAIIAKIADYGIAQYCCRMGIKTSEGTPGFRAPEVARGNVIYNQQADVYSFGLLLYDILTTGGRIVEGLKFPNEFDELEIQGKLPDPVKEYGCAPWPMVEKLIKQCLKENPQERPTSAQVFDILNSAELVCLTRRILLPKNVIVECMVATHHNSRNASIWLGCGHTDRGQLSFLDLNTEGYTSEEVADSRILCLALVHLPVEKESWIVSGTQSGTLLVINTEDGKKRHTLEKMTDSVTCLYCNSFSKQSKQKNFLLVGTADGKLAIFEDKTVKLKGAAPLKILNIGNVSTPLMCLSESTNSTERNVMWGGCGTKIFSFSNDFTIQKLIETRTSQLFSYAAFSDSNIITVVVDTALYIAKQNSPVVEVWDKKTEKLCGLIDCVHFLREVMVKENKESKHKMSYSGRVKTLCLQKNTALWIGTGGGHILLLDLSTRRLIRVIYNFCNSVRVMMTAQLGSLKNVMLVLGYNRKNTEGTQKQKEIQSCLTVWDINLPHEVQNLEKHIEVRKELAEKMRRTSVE
In words: LRRK2 Assay, Format 1 (Lantha Screen), WT. It is filed as biochemical. As for the experimental part: LRRK2 kinase activity was measured using Lantha Screen technology from Invitrogen. GST-tagged truncated LRRK2 from Invitrogen (Cat # PV4874) was incubated with a fluorescein-labeled peptide substrate based upon ezrin/radixin/moesin (ERM), also known as LRRKtide (Invitrogen cat # PR8976A), in the presence of a dose response of compound. Upon completion, the assay was stopped and detected with a terbium labeled anti-phospho-ERM antibody (Invitrogen, cat # PR8975A). […] Aliquots (3.5 μL) of the 100% DMSO dose response were mixed with 46.5 μL water then 1 μL of this mixture was added to the 3 μL substrate mix in the 384-well plate. The kinase reaction was started with 3 μL of a working solution of LRRK2 enzyme at a concentration of 4 μg/mL. […] The reaction was allowed to progress at room temperature for two hours and then stopped with the addition of 7 μL of detection buffer (20 mM Tris pH 7.6, 0.01% NP-40, 0.02% NaN3, 6 mM EDTA with 2 nM terbium labeled anti-phospho-ERM).

Assay [2] deals with T2, mutant G2019S LRRK2 (Homo sapiens, UniProt Q5S007, G2019S). In words: LRRK2 Assay, Format 1 (Lantha Screen), G2019S mutant.
T2 sequence (Q5S007 970-2527 G2019S limits assumed): as the sequence (Q5S007 970-2527 limits assumed) above, with G1050S counted along it
Excerpt: All final concentrations of substrate ATP and enzyme were the same.
Assay [3] concerns the target T1, GST-tagged truncated LRRK2. In words: LRRK2 Assay, Format 2 (Lantha Screen), WT. Format: biochemical. The note with it: geometric mean of 2-4 determinations unless otherwise indicated (a: >=5; b: single determination).
The target in assay [4] is T2, mutant G2019S LRRK2. In words: LRRK2 Assay, Format 2 (Lantha Screen), G2019S mutant. It is filed as biochemical. More on the design: purchased Invitrogen PV4881. The note with it: geometric mean of 2-4 determinations unless otherwise indicated (a: >=5; b: single determination); read-out: LRRK2, Format 2 G2019S IC50.
[5] abbreviates: Format 1, wild-type LRRK2, geometric mean of 2-4 determinations unless footnoted (a: ≥5 determinations; b: single determination; c: determined on trifluoroacetate salt).

Broadly, the IC50 is the concentration at which inhibition is half-maximal. Take `Cc1nc2cnc3ccccc3c2n1[C@H]1CCO[C@@H](C)C1` (racemic) [Example 15, 2-methyl-1-(cis-2-methyltetrahydro-2H-pyran-4-yl)-1H-imidazo[4,5-c]quinoline]: the IC50 in assay [1] (setting [5]) turned out to be 187 nM; on mutant G2019S LRRK2 [2], 257 nM.
On to `Cc1nc2cnc3ccc(C#N)cc3c2n1[C@H]1CCO[C@@H](C)C1` (racemic) [Example 19, 2-methyl-1-(cis-2-methyltetrahydro-2H-pyran-4-yl)-1H-imidazo[4,5-c]quinoline-8-carbonitrile], for which the IC50 in assay [1] (setting [5]) stood at 81 nM; on mutant G2019S LRRK2 [2], 55.5 nM.
The corresponding values for `C[C@H]1C[C@@H](n2c(Cc3ccon3)nc3cnc4ccc(C#N)cc4c32)CCO1` (racemic) [Example 21, 1-(cis-2-methyltetrahydro-2H-pyran-4-yl)-2-(1,2-oxazol-3-ylmethyl)-1H-imidazo[4,5-c]quinoline-8-carbonitrile] are 7.5 nM and 4.5 nM.
With `C[C@@H]1C[C@@H](n2c(Cc3ccon3)nc3cnc4ccc(C#N)cc4c32)CCO1` (racemic) [Example 23, 1-(trans-2-methyltetrahydro-2H-pyran-4-yl)-2-(1,2-oxazol-3-ylmethyl)-1H-imidazo[4,5-c]quinoline-8-carbonitrile], the IC50 in assay [1] (setting [5]) was 199 nM; against mutant G2019S LRRK2 [2] it was 153 nM.
`O[C@@H]1CCC[C@@H](n2c(Cc3ccon3)nc3cnc4ccccc4c32)C1` (racemic) [Example 49, trans-3-[2-(1,2-oxazol-3-ylmethyl)-1H-imidazo[4,5-c]quinolin-1-yl]cyclohexanol]: the IC50 was found to be 152 nM in assay [1] (setting [5]) and 81.2 nM against mutant G2019S LRRK2 [2].
The corresponding values for `C[C@H]1C[C@@H](n2c(Cc3cscn3)nc3cnc4ccc(Br)cc4c32)CCO1` (racemic) [Example 56, 8-bromo-1-(cis-2-methyltetrahydro-2H-pyran-4-yl)-2-(1,3-thiazol-4-ylmethyl)-1H-imidazo[4,5-c]quinoline] are 10 nM and 5.2 nM.
The corresponding values for `Cc1cc(Cc2nc3cnc4ccc(Br)cc4c3n2[C@H]2CCO[C@@H](C)C2)no1` (racemic) [Example 58, 8-bromo-2-[(5-methyl-1,2-oxazol-3-yl)methyl]-1-(cis-2-methyltetrahydro-2H-pyran-4-yl)-1H-imidazo[4,5-c]quinoline] are 16.8 nM and 8.2 nM.
For `CC[C@H]1C[C@@H](n2c(Cc3ccon3)nc3cnc4ccc(Br)cc4c32)CCO1` (racemic) [Example 66, 8-bromo-1-(cis-2-ethyltetrahydro-2H-pyran-4-yl)-2-(1,2-oxazol-3-ylmethyl)-1H-imidazo[4,5-c]quinoline], the IC50 turned out to be 32.5 nM in assay [1] (setting [5]) and 16.4 nM against mutant G2019S LRRK2 [2].
`C[C@H]1C[C@@H](n2c(Cc3cn4ncsc4n3)nc3cnc4ccc(F)cc4c32)CCO1` (racemic) [Example 86, 8-fluoro-2-(imidazo[2,1-b][1,3,4]thiadiazol-6-ylmethyl)-1-(cis-2-methyltetrahydro-2H-pyran-4-yl)-1H-imidazo[4,5-c]quinoline]: the values for the IC50 (in assay [1] (setting [5]); against mutant G2019S LRRK2 [2]) were 7.6 nM and 5.6 nM, respectively.
In the case of `Cc1nc2cnc3ccccc3c2n1[C@H]1CCO[C@@H](CC#N)C1` (racemic) [Example 91, [cis-4-(2-methyl-1H-imidazo[4,5-c]quinolin-1-yl)tetrahydro-2H-pyran-2-yl]acetonitrile], the IC50 came to 18.7 nM in assay [1] (setting [5]) and 12.2 nM on mutant G2019S LRRK2 [2].
The like results for `COc1ccc2ncc3nc(Cc4cc(C)on4)n([C@@H]4CCO[C@H](C)C4)c3c2c1` (single isomer, unassigned) [Example 1] were, in that order, 39.3 nM and 14.4 nM.
Consider `C[C@@H]1C[C@H](n2c(Cc3ccon3)nc3cnc4ccc(Br)cc4c32)CCO1` (single isomer, unassigned) [Example 12], for which the IC50 turned out to be 4.5 nM in assay [1] (setting [5]) and 2.4 nM on mutant G2019S LRRK2 [2].
The like results for `C[C@H]1C[C@@H](n2c(Cc3cn4ncsc4n3)nc3cnc4ccc(Cl)cc4c32)CCO1` (single isomer, unassigned) [Example 64] were, in that order, 279 nM and 132 nM.
The corresponding values for `C[C@@H]1C[C@H](n2c(Cn3cncn3)nc3cnc4ccc(Cl)cc4c32)CCO1` (single isomer, unassigned) [Example 65] are 2.8 nM and 1.8 nM.
`COc1ccc2ncc3nc(Cc4cc(C)on4)n([C@H]4CCO[C@@H](C)C4)c3c2c1` (single isomer, unassigned) [Example C12]: the IC50 in assay [1] (setting [5]) was determined as 1260 nM; at mutant G2019S LRRK2 [2], 478 nM.
Regarding `C[C@H]1C[C@@H](n2c(Cc3ccon3)nc3cnc4ccc(Br)cc4c32)CCO1` (single isomer, unassigned) [enantiomer of Example 12], the IC50 was 510 nM in assay [1] (100 nM LRRKtide, 50 μM ATP, 1.7 μg/mL LRRK2 enzyme, two hours at room temperature) and 226 nM against mutant G2019S LRRK2 [2].
As for `Cc1cc(Cc2nc3cnc4ccc(C#N)cc4c3n2[C@@H](C)CF)no1` [Example 243, 1-[(2S)-1-fluoropropan-2-yl]-2-[(5-methyl-1,2-oxazol-3-yl)methyl]-1H-imidazo[4,5-c]quinoline-8-carbonitrile, formate salt], the IC50 in assay [3] was 48.7 nM; at mutant G2019S LRRK2 [4], 85.9 nM.
Consider `Cc1cc(Cc2nc3cnc4ccc(C#N)cc4c3n2C2CCCC(F)(F)C2)no1` (stereo not shown) [Example 244, 1-(3,3-difluorocyclohexyl)-2-[(5-methyl-1,2-oxazol-3-yl)methyl]-1H-imidazo[4,5-c]quinoline-8-carbonitrile, formate salt], for which the figures for the IC50 (in assay [3]; at mutant G2019S LRRK2 [4]) were 79.4 nM and 89.7 nM, respectively.
With `Cc1cc(Cc2nc3cnc4ccc(C#N)cc4c3n2C2CCC(F)(F)C2)no1` (stereo not shown) [Example 246, 1-(3,3-difluorocyclopentyl)-2-[(5-methyl-1,2-oxazol-3-yl)methyl]-1H-imidazo[4,5-c]quinoline-8-carbonitrile, formate salt], the figures for the IC50 (in assay [3]; at mutant G2019S LRRK2 [4]) were 65 nM and 86.5 nM, respectively.
Consider `Cc1cc(Cc2nc3cnc4ccc(C#N)cc4c3n2[C@H]2CC[C@](C)(O)CC2)no1` [Example 247, 1-(trans-4-hydroxy-4-methylcyclohexyl)-2-[(5-methyl-1,2-oxazol-3-yl)methyl]-1H-imidazo[4,5-c]quinoline-8-carbonitrile, formate salt], for which the IC50 was found to be 85.1 nM in assay [3] and 59.5 nM on mutant G2019S LRRK2 [4].
As to `Cc1cc(Cc2nc3cnc4ccc(C#N)cc4c3n2CC(C)(F)F)no1` [Example 248, 1-(2,2-difluoropropyl)-2-[(5-methyl-1,2-oxazol-3-yl)methyl]-1H-imidazo[4,5-c]quinoline-8-carbonitrile], the values for the IC50 (in assay [3]; on mutant G2019S LRRK2 [4]) were 15 nM and 17.7 nM, respectively.
The corresponding values for `C[C@@H]1C[C@H](n2c(Cc3cnccn3)nc3cnc4ccc(Cl)cc4c32)CCO1` [Example 249, 8-chloro-1-[(2R,4R)-2-methyltetrahydro-2H-pyran-4-yl]-2-(pyrazin-2-ylmethyl)-1H-imidazo[4,5-c]quinoline, trifluoroacetate salt] are 16.9 nM and 18.6 nM.
The corresponding values for `C[C@@H]1C[C@H](n2c(Cc3ccccn3)nc3cnc4ccc(Cl)cc4c32)CCO1` [Example 250, 8-chloro-1-[(2R,4R)-2-methyltetrahydro-2H-pyran-4-yl]-2-(pyridin-2-ylmethyl)-1H-imidazo[4,5-c]quinoline, formate salt] are 10.4 nM and 11 nM.
